Source: PubChem BioAssay AID1918953 (Molecular Pharmacology Branch, DTP, NCI, 2023)
“And” between values parts separate entries of the source, which are not always exact repeats. Equal entries are not always repeated.

Tested on: MDA-MB-231 complex spheroid viability
Assay: Anticancer human tumor MDA-MB-231/ATCC cell line growth inhibition;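 further: drug exposure lasted 7 days starting on day 3 of spheroid growth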
Details: for viability, T/C: stronger effect = lower value
In short: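 Complex spheroids of tumor cells with HUVEC and human MSCs, exposed to iadademstat combined with other agents. Each agent tested in half-log steps from near clinical Cmax (else 10 microM top), DMSO ≤0.25%.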

[1] = curve of first compound, second compound 0.1 µM
[2] = curve of first compound, second compound 0.316 µM
[3] = curve of first compound, second compound 1 µM
[4] = curve of first compound, second compound 3.16 µM
[5] = curve of first compound, second compound 10 µM
[6] = second compound 0.1 µM, first compound 0.0316 µM
[7] = second compound 0.1 µM, first compound 0.1 µM
[8] = second compound 0.1 µM, first compound 0.316 µM
[9] = second compound 0.1 µM, first compound 1 µM
[10] = second compound 0.316 µM, first compound 0.0316 µM
[11] = second compound 0.316 µM, first compound 0.1 µM
[12] = second compound 0.316 µM, first compound 0.316 µM
[13] = second compound 0.316 µM, first compound 1 µM
[14] = second compound 1 µM, first compound 0.0316 µM
[15] = second compound 1 µM, first compound 0.1 µM
[16] = second compound 1 µM, first compound 0.316 µM
[17] = second compound 1 µM, first compound 1 µM
[18] = second compound 3.16 µM, first compound 0.0316 µM
[19] = second compound 3.16 µM, first compound 0.1 µM
[20] = second compound 3.16 µM, first compound 0.316 µM
[21] = second compound 3.16 µM, first compound 1 µM
[22] = second compound 10 µM, first compound 0.0316 µM
[23] = second compound 10 µM, first compound 0.1 µM
[24] = second compound 10 µM, first compound 0.316 µM
[25] = second compound 10 µM, first compound 1 µM

CC1(C)CCC(CN2CCN(c3ccc(C(=O)NS(=O)(=O)c4ccc(NCC5CCOCC5)c([N+](=O)[O-])c4)c(Oc4cnc5[nH]ccc5c4)c3)CC2)=C(c2ccc(Cl)cc2)C1 + NC1CCC(NC2CC2c2ccccc2)CC1
IC50 [1]: 6760 nM
IC50 [2]: 6450 nM
IC50 [3]: 5380 nM
IC50 [4]: 3860 nM
IC50 [5]: 735 nM
viability, T/C [6]: 100%
viability, T/C [7]: 98.6%
viability, T/C [8]: 100%
viability, T/C [9]: 102%
viability, T/C (second compound 0.1 µM, first compound 3.16 µM): 92.6%
viability, T/C (second compound 0.1 µM, first compound 10 µM): 27.8%
viability, T/C [10]: 102%
viability, T/C [11]: 103%
viability, T/C [12]: 97.3%
viability, T/C [13]: 97.3%
viability, T/C (second compound 0.316 µM, first compound 3.16 µM): 86%
viability, T/C (second compound 0.316 µM, first compound 10 µM): 27.6%
viability, T/C [14]: 98.9%
viability, T/C [15]: 95.6%
viability, T/C [16]: 99.4%
viability, T/C [17]: 95.3%
viability, T/C (second compound 1 µM, first compound 3.16 µM): 72.8%
viability, T/C (second compound 1 µM, first compound 10 µM): 23.5%
viability, T/C [18]: 81.1%
viability, T/C [19]: 77.3%
viability, T/C [20]: 74.8%
viability, T/C [21]: 75%
viability, T/C (second compound 3.16 µM, first compound 3.16 µM): 56.2%
viability, T/C (second compound 3.16 µM, first compound 10 µM): 19.9%
viability, T/C [22]: 48.6%
viability, T/C [23]: 60.2%
viability, T/C [24]: 53.8%
viability, T/C [25]: 47.7%
viability, T/C (second compound 10 µM, first compound 3.16 µM): 36.2%
viability, T/C (second compound 10 µM, first compound 10 µM): 18.6%

Nc1ccccc1NC(=O)c1ccc(CNC(=O)OCc2cccnc2)cc1 + NC1CC1c1ccc(-c2cccc(O)c2)cc1
IC50 [1]: 13.3 nM
IC50 [2]: 10.5 nM
IC50 [3]: < 9.49 nM
IC50 [4]: < 9.49 nM
IC50 [5]: < 9.49 nM
viability, T/C (second compound 0.1 µM, first compound 0.00949 µM): 56.6%
viability, T/C (second compound 0.1 µM, first compound 0.03 µM): 34.9%
viability, T/C (second compound 0.1 µM, first compound 0.0949 µM): 22.7%
viability, T/C (second compound 0.1 µM, first compound 0.3 µM): 12.2%
viability, T/C (second compound 0.1 µM, first compound 0.949 µM): 2.07%
viability, T/C (second compound 0.1 µM, first compound 3 µM): 0.17%
viability, T/C (second compound 0.316 µM, first compound 0.00949 µM): 52.7%
viability, T/C (second compound 0.316 µM, first compound 0.03 µM): 31.5%
viability, T/C (second compound 0.316 µM, first compound 0.0949 µM): 21%
viability, T/C (second compound 0.316 µM, first compound 0.3 µM): 10.6%
viability, T/C (second compound 0.316 µM, first compound 0.949 µM): 1.85%
viability, T/C (second compound 0.316 µM, first compound 3 µM): 0.16%
viability, T/C (second compound 1 µM, first compound 0.00949 µM): 43.3%
viability, T/C (second compound 1 µM, first compound 0.03 µM): 27%
viability, T/C (second compound 1 µM, first compound 0.0949 µM): 21.7%
viability, T/C (second compound 1 µM, first compound 0.3 µM): 9.99%
viability, T/C (second compound 1 µM, first compound 0.949 µM): 1.67%
viability, T/C (second compound 1 µM, first compound 3 µM): 0.15%
viability, T/C (second compound 3.16 µM, first compound 0.00949 µM): 46.3%
viability, T/C (second compound 3.16 µM, first compound 0.03 µM): 31.6%
viability, T/C (second compound 3.16 µM, first compound 0.0949 µM): 21.3%
viability, T/C (second compound 3.16 µM, first compound 0.3 µM): 13.3%
viability, T/C (second compound 3.16 µM, first compound 0.949 µM): 1.34%
viability, T/C (second compound 3.16 µM, first compound 3 µM): 0.13%
viability, T/C (second compound 10 µM, first compound 0.00949 µM): 36.3%
viability, T/C (second compound 10 µM, first compound 0.03 µM): 22.1%
viability, T/C (second compound 10 µM, first compound 0.0949 µM): 12%
viability, T/C (second compound 10 µM, first compound 0.3 µM): 7.05%
viability, T/C (second compound 10 µM, first compound 0.949 µM): 0.48%
viability, T/C (second compound 10 µM, first compound 3 µM): 0.24%

Nc1ccn(C2OC(CO)C(O)C2(F)F)c(=O)n1 (configuration not stated)
viability, T/C (compound 0.000949 µM): 20.4% and 39.3%
viability, T/C (compound 0.003 µM): 17.2% and 31%
viability, T/C (compound 0.00949 µM): 15.5% and 19.9%
viability, T/C (compound 0.03 µM): 12.6% and 17.8%
viability, T/C (compound 0.0949 µM): 8.77% and 15.2%
viability, T/C (compound 0.3 µM): 5.47% and 14%
IC50 (curve of compound): < 0.949 nM

O=C(C=Cn1cnc(-c2cc(C(F)(F)F)cc(C(F)(F)F)c2)n1)NNc1cnccn1 + NC1CCC(NC2CC2c2ccccc2)CC1
IC50 [1]: 5.44 nM
IC50 [2]: 4.93 nM
IC50 [3]: 6.56 nM
IC50 [4]: 6.04 nM
IC50 [5]: < 3.16 nM
viability, T/C (second compound 0.1 µM, first compound 0.00316 µM): 61.7%
viability, T/C (second compound 0.1 µM, first compound 0.01 µM): 37%
viability, T/C [6]: 14.9%
viability, T/C [7]: 10.4%
viability, T/C [8]: 9%
viability, T/C [9]: 6.32%
viability, T/C (second compound 0.316 µM, first compound 0.00316 µM): 58.9%
viability, T/C (second compound 0.316 µM, first compound 0.01 µM): 36.2%
viability, T/C [10]: 15%
viability, T/C [11]: 11.4%
viability, T/C [12]: 7.56%
viability, T/C [13]: 5.07%
viability, T/C (second compound 1 µM, first compound 0.00316 µM): 64.6%
viability, T/C (second compound 1 µM, first compound 0.01 µM): 41.7%
viability, T/C [14]: 15.4%
viability, T/C [15]: 11.4%
viability, T/C [16]: 8.75%
viability, T/C [17]: 6.54%
viability, T/C (second compound 3.16 µM, first compound 0.00316 µM): 56%
viability, T/C (second compound 3.16 µM, first compound 0.01 µM): 45.4%
viability, T/C [18]: 13.9%
viability, T/C [19]: 11.2%
viability, T/C [20]: 8.03%
viability, T/C [21]: 6.06%
viability, T/C (second compound 10 µM, first compound 0.00316 µM): 49.2%
viability, T/C (second compound 10 µM, first compound 0.01 µM): 34.5%
viability, T/C [22]: 14%
viability, T/C [23]: 9.12%
viability, T/C [24]: 7.43%
viability, T/C [25]: 5.83%
